Assay results reported in patent US12194057B2, “NXTAR-derived oligonucleotides and uses thereof” (Washington University, priority 2020, dated 2025).
Oligonucleotides are written 5' to 3', each unit as a sugar letter and its base; * is a phosphorothioate linkage, no mark a phosphodiester; rarer units and linkages stand in square brackets, end groups in braces. Plain capitals give the bases only. d = 2'-deoxy (DNA)

What was measured:
[1] = system: NXTAR; assay: qRT-PCR of NXTAR expression in prostate cancer cell lines; type: cell-based, human
Experimental: (§1) Cells were transfected, infected or treated [(R)-9b; EPZ6438, TargetMol, Cat #T1788] accordingly. RNA was used for cDNA preparation using High-Capacity cDNA Reverse Transcription Kit (Thermo Scientific Cat #4368814). Resulting cDNA was then analyzed by qPCR using an Applied Biosystems 7900 Real-Time PCR System (Thermo Scientific) and SYBR Green PCR Master Mix [SYBR PremixEx Taq II (Tli RNase H Plus) ROX, Clontech Takara, Cat #RR82LR] according to the manufacturers' instructions. Dissociation curves were generated for each plate to verify the integrity of the primers. The relative expression of RNAs was calculated using the comparative Ct or standard curve method. 18S rRNA or actin were used as internal controls.

[2] = system: NXTAR promoter; assay: ChIP-qPCR at NXTAR promoter (Ppr3, Ppr4), IRF8 binding site and NXTAR enhancer; type: cell-based, human; conditions: 22Rv1 and LNCaP cells, (R)-9b combined with CPTH2
Experimental: (§2) Chromatin immunoprecipitation (ChIP), quantitative RT-PCR, and ChIP-qPCR were performed as described earlier (see e.g., Mahajan et al. (2017) Cancer Cell; Mahajan et al. (2012) J Biol Chem; and Mahajan et al. (2012) Nat Struct Mol Bio). Briefly, cells were either transfected, infected or treated with various inhibitors (R)-9b; CPTH2 (Sigma, Cat #C9873)], fixed in formaldehyde, lysed and ChIP was performed with antibodies recognizing AR (SCBT, sc-7305; RRID:AB_626671), GCN5 (SCBT, SC-365321; RRID:AB_10846182), H3K14ac (CST, 7627S; RRID:AB_10839410), H3K27me3 (CST, 9733S; RRID:AB 2616029), NCOR1 (Bethyl Laboratories, Cat #A301-145A; RRID:AB_873085), EZH2 (CST, 5246S; RRID:AB_10694683), or IgG (Abcam, ab2410; RRID:AB_303052), immobilized on Protein A magnetic beads (Biorad, Cat #161-4013). The complexes were washed with ChIP buffers, eluted with elution buffer (Active Motif, Cat #53008), and subjected to reverse crosslinking, followed by RNase and proteinase K treatments. A part of soluble chromatin was processed separately at the same time and designated as input DNA. Treated ChIP DNA and input DNAs were purified using PCR-DNA purification columns (Qiagen, Cat #28106). The amount of immunoprecipitated DNA was determined by real-time PCR.

[3] = system: AR; assay: qRT-PCR of AR and AR target gene expression in prostate cancer cells; type: cell-based, human
Experimental: (§3) NXTAR-N5 oligonucleotide was synthesized by IDT, and the oligonucleotide sequence is provided in TABLE 1 and FIG. 7C (* represents phosphorothioate bond modifications to avoid degradation by exonucleases). Equal numbers of VCaP and 22Rv1 cells were transfected with NXTAR-N5 or globin-derived oligonucleotide using X-tremeGENE360 (Sigma-Aldrich, Cat #08724121001), and the number of live cells was counted 96 h post-transfection using trypan blue exclusion method (Sigma, Cat #T8154). RNA was prepared from these cells, and qRT-PCR [SYBR PremixEx Taq II (Tli RNase H Plus)ROX, Clontech Takara, Cat #RR82LR] for AR and AR-V7 was performed as described earlier (see e.g., Mahajan et al. (2017) Cancer Cell).
as §1

[4] = system: AR promoter; assay: ChIP-qPCR (EZH2, H3K27me3) at AR promoter; type: cell-based, human; conditions: VCaP cells transfected with oligo, ChIP
Experimental: as §2

[5] = system: VCaP and 22Rv1 cells; assay: Proliferation assay, viable cells by trypan blue exclusion; type: cell-based, human
Experimental: as §3
The 22Rv1, VCaP, or LNCaP cells were retrovirally infected with control or NXTAR vectors and selected in puromycin medium containing 5% charcoal-stripped serum. Equal numbers of selected cells were seeded in 6-well plates followed by treatment with either (R)-9b, enzalutamide (Selleck Chemicals, Cat #S1250), or abiraterone (Selleck Chemicals, Cat #52246), and the number of viable cells was counted by trypan blue exclusion assay.

[6] = system: AR-V7; assay: qRT-PCR of AR-V7 expression in prostate cancer cells; type: cell-based, human; conditions: VCaP and 22Rv1 cells transfected with oligonucleotide
Experimental: as §3
as §1, with “18S rRNA or actin were used as internal controls.” left out

[7] = system: upstream of AR; assay: ChIRP with biotin-labeled oligos and VCaP lysate, qPCR with AR Up1.1 primers; type: binding, human; conditions: biotinylated oligo on streptavidin beads, VCaP lysate, qPCR AR Up1.1
Experimental: (§4) Biotin-labeled NXTAR-N5 (complementary to the AR promoter) and globin oligos were synthesized (IDT) (see e.g., TABLE 1). ChIRP was performed using lysate from formaldehyde-fixed VCaP cells and oligos that were immobilized to streptavidin beads, as described earlier (see e.g., Chu and Chang (2016) Methods Mol Bio). The amount of the chromatin DNA was determined by real-time PCR. For detection of NXTAR-N5/EZH2 binding, biotin-labeled NXTAR-N5 oligo and control globin oligo were incubated with VCaP cell lysates and were subjected to chromatin pull-down, followed by immunoblotting with EZH2 antibodies.

[8] = biological target: T1, EZH2 (Homo sapiens, UniProt Q15910); assay: Pull-down from VCaP cell lysates with biotinylated oligos, immunoblotting for EZH2; type: binding; conditions: VCaP cell lysate, chromatin pull-down
T1 construct: endogenous in cells; host or cells: VCaP cells (some retrovirally infected to over-express NXTAR lncRNA)
Experimental: The biotinylated oligonucleotides were incubated with lysates (2 h), and the lysates were incubated with streptavidin magnetic beads overnight. Beads attached to RNAs were divided equally and processed for either RNA isolation or western blotting. For RNA isolation, beads were washed three times and then separated using proteinase K treatment. RNA was then isolated and purified, and DNA was digested in the process. The real-time quantitative RT-PCR was performed on isolated RNA to check the efficiency of pull-down of NXTAR RNA. The remaining beads were heated at 80° C. for 5 min in loading buffer, followed by western blotting. The blots were probed with EZH2 (CST, 5246S; RRID:AB_10694683) antibody and Actin (SCBT, sc-47778; RRID:AB_2714189) was used as the loading control.
as §4

[9] = biological target: T2, purified EZH2 (Homo sapiens, UniProt Q15910); assay: EZH2 pull-down assay with purified 6xHis-tagged EZH2; type: binding; conditions: pull-down, immunoblotting
T2 construct: made in house
Experimental: 1 mg of lysate prepared from HEK293 cells transfected with 6λHis-tagged-EZH2 plasmid was incubated with Ni-NTA agarose beads (Qiagene) overnight at 4° C. Beads were washed three times using wash buffer (20 mM Tris/HCl, 200 mM NaCl, 5 mM imidazole; pH 7.5) and purified EZH2 was eluted using elution buffer (20 mM Tris/HCl, 200 mM NaCl, 200 mM imidazole; pH 7.5).
LncRNA-Protein binding study was performed as described earlier (see e.g., Zhao, Wang, and Hu (2021) Methods Mol Bio). Briefly, 10 pmol Biotinylated NXTAR-N5 oligo or Biotinylated Globin oligos were diluted in 40 ul RNA structure buffer, heated at 90° C. for 2 min, immediately transferred onto ice for 2 min and then kept at RT for further 20 mins. 10 uM of purified EZH2 protein was added to these biotinylated oligos with 500 ul of NETN buffer and the tubes were placed at 4° C. for 2 hrs. Post washing with cold NETN buffer, streptavidin magnetic beads (60 ul) were added into prepared oligo-protein mix and incubated at 4° C. overnight. Beads were washed 3 times with NETN buffer, followed by western blot analysis. […]

[10] = Enzalutamide-resistant VCaP cells, 7 μM enzalutamide, 96 h

T2 sequence (Q15910 whole entry): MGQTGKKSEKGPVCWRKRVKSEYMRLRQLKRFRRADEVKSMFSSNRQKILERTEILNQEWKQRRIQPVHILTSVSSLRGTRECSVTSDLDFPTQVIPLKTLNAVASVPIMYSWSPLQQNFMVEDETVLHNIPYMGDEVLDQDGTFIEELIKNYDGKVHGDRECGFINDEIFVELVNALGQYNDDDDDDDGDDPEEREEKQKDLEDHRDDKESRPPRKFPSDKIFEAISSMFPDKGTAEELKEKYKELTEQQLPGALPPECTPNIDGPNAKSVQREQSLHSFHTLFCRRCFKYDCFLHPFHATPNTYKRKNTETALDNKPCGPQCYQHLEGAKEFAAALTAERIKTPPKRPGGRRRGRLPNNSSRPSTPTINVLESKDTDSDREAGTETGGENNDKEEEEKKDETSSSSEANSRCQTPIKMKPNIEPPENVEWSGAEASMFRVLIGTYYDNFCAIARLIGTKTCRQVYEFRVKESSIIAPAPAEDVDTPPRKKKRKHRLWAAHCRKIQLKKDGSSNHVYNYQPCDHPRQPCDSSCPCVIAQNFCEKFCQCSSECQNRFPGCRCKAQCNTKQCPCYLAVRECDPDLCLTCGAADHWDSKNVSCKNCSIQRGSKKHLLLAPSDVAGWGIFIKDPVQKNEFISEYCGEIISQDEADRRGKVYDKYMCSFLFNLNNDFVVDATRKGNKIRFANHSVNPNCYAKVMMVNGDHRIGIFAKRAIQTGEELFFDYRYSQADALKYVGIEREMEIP
T1 sequence (Q15910 whole entry): as above
T1 sequence (O75530 whole entry partner): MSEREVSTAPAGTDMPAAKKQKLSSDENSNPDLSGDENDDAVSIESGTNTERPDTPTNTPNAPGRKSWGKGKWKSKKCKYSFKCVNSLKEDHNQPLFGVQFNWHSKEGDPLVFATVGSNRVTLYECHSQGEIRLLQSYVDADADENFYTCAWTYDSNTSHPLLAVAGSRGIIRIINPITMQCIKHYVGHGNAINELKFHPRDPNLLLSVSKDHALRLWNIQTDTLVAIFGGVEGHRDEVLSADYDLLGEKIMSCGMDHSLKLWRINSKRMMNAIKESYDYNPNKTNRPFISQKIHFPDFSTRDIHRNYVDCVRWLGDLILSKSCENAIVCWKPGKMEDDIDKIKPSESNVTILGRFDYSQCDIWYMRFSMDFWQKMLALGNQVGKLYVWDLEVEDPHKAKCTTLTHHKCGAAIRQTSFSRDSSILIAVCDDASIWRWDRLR
T1 sequence (Q15022 whole entry partner): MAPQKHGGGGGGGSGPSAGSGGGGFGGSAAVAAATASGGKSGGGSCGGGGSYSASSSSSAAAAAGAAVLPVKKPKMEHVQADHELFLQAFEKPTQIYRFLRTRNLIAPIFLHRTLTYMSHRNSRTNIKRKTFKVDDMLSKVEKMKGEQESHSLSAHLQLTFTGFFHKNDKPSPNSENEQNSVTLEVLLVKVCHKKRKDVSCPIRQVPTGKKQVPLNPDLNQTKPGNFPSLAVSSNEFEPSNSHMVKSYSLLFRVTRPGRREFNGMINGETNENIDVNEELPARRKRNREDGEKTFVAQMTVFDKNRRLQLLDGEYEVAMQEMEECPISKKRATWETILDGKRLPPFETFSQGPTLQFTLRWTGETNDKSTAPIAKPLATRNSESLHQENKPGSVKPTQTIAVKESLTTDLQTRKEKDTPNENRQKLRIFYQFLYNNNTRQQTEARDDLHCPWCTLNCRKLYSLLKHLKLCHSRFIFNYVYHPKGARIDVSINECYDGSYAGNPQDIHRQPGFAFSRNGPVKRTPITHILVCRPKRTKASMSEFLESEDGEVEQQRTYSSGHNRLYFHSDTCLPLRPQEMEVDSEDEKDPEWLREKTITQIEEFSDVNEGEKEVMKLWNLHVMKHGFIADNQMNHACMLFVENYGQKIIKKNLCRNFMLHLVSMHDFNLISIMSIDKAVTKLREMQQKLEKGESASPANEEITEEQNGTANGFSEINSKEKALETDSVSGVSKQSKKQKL
T1 sequence (Q09028 whole entry partner): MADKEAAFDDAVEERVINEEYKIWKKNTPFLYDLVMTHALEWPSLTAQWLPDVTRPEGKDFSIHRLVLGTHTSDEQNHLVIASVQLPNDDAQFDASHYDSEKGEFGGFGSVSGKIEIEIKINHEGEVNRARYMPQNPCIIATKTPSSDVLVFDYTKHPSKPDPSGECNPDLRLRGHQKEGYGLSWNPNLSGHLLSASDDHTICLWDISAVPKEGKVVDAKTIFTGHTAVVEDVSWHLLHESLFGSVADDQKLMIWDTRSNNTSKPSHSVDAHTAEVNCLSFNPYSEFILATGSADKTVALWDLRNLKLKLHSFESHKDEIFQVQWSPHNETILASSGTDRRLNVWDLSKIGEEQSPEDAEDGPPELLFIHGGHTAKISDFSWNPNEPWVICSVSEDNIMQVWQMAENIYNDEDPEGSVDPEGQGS

With `Clc1ccc(-c2csc(NN=C3CCCC3)n2)cc1` [CPTH2] the “NXTAR levels following (R)-9b treatment under GCN5 inhibition” value ([1]; 22Rv1 and LNCaP cells, CPTH2 in combination with (R)-9b) was “severely compromised” and the “H3K14ac mark deposition at Ppr3 and Ppr4” value [2] was “abrogated”.

`CCN(c1cc(-c2ccc(CN3CCOCC3)cc2)cc(C(=O)NCc2c(C)cc(C)[nH]c2=O)c1C)C1CCOCC1` [EPZ6438, reference compound] was tested, and the AR expression ([3]; VCaP cells infected with NXTAR construct, EPZ6438 1 μM overnight) was “restored the AR expression”.

For “NXTAR-N5: 60-mer oligonucleotide, nt 511-570 of SEQ ID NO: 58, terminal phosphorothioate bonds (SEQ ID NO: 1) (DNA dA*dT*dT*dAdTdTdAdTdTdTdTdAdAdAdTdTdTdAdCdAdGdAdAdGdGdGdGdAdAdAdCdTdAdAdGdAdAdTdTdAdTdAdGdAdCdAdTdGdAdAdGdTdGdAdCdTdC*dA*dC*dC)”, the “histone H3K27 methylation in the AR promoter region (−0.7 kb)” value [4] was “induced histone H3K27 methylation”, the “proliferation (live cells)” value ([5]; VCaP and 22Rv1 cells, 96 h post-transfection) was “compromised proliferation” and the AR transcription ([3]; VCaP and 22Rv1 cells transfected with oligonucleotide) was “significant decrease”. For the same molecule, the AR expression ([3]; transfection of oligos, prostate and other cancer cell lines) was “highly effective”, the AR-V7 transcription [6] was “significant decrease” and the “binding upstream of AR” value [7] was “bound upstream of AR”. For the same molecule, the “interaction with EZH2” value [8] was “interaction with EZH2 was confirmed” and the “interaction with purified EZH2” value [9] was “interaction with purified EZH2 (as described above) was confirmed”.

For `CNC(=O)c1ccc(N2C(=S)N(c3ccc(C#N)c(C(F)(F)F)c3)C(=O)C2(C)C)cc1F` [enzalutamide, reference compound], the NXTAR levels [1, 10] was “no change in NXTAR levels”, the “proliferation (number of viable cells)” value ([5]; VCaP (9 days) and 22Rv1 (5 days) cells, androgen-deprived, drug treatment) was “did not result in a significant decrease in proliferation” and the AR levels [3, 10] was “marginal decrease in AR levels”.
